Measurements taken from ChEMBL document CHEMBL4665641, “Lead optimization and efficacy evaluation of quinazoline-based BET family inhibitors for potential treatment of cancer and inflammatory diseases” (Bioorg Med Chem Lett, 2019).
Blank lines part the entries; values can stand above or below the molecule they belong to.

Key:
Kasumi 1 [1] = experiment: Antitumor activity against human Kasumi-1 cells xenografted in CB17 SCID mouse assessed as inhibition of tumor growth at 10 mg/kg, po QD for 29 days; assay type: functional; details: Kasumi 1, po, 696 h, time 29 day, read-out: TGI
[2] = Half life in CD-1 mouse at 10 mg/kg, po; assay type: ADME, organism-based; details: in vivo
Kasumi 1 [3] = experiment: Antitumor activity against human Kasumi-1 cells xenografted in CB17 SCID mouse assessed as tumor volume at 10 mg/kg, po QD for 29 days (reference value: 1734 +/- 220 mm3); assay type: functional; details: time 29 day
[4] = Cmax in CD-1 mouse at 10 mg/kg, po; assay type: ADME, organism-based; set-up: route oral, dose 10 mg/kg; details: in vivo
[5] = Cmax in CD-1 mouse at 2 mg/kg, iv measured after 5 mins; assay type: ADME, organism-based; set-up: route intravenous, dose 2 mg/kg; details: CD-1, mouse, in vivo, read-out: Cmax
Kasumi 1 [6] = experiment: Antitumor activity against human Kasumi-1 cells xenografted in CB17 SCID mouse assessed as tumor weight at 10 mg/kg, po QD for 29 days (reference value: 2.1+/- 0.3 g); assay type: functional; details: time 29 day
[7] = Half life in CD-1 mouse at 2 mg/kg, iv; assay type: ADME, organism-based; details: in vivo
[8] = Oral bioavailability in CD-1 mouse at 10 mg/kg; assay type: ADME, organism-based; details: CD-1, mouse, in vivo
[9] = AUC(0 to infinity) in CD-1 mouse at 10 mg/kg, po; assay type: ADME, organism-based; set-up: route oral, time infinity, dose 10 mg/kg; details: CD-1, mouse, in vivo
[10] = Volume of distribution at steady state in CD-1 mouse at 2 mg/kg, iv; assay type: ADME, organism-based; details: in vivo, read-out: Vdss
[11] = Plasma clearance in CD-1 mouse at 2 mg/kg, iv; assay type: ADME, organism-based
[12] = AUC(0 to infinity) in CD-1 mouse at 2 mg/kg, iv; assay type: ADME, organism-based; set-up: time infinity, route intravenous, dose 2 mg/kg; details: in vivo; for AUC(0-inf): CD-1, mouse; for AUC: mouse
[13] = target: T1, Bromodomain-containing protein 4 (Homo sapiens, UniProt O60885); experiment: Inhibition of human full-length recombinant N-terminal His-tagged BRD4 (2 to 1362 residues) expressed in Sf9 cells using histone H4 peptide containing acetylated lysine residues as substrate preincubated with enzyme for 30 mins followed by incubation with substrate for 30 mins by Alphascreen assay […]
[14] = target: T1, Bromodomain-containing protein 4; experiment: Competitive binding affinity to human partial length BRD4 (BD1,2) (N44 to E460 residues) expressed in bacterial expression system by BROMOscan assay
MV4-11 = experiment: Cytotoxicity against human MV4-11 cells assessed as inhibition of cell viability; assay type: functional, cell-based
[15] = Stability in mouse liver microsomes assessed as half life; assay type: ADME, Microsome

Compound: Cc1noc(C)c1-c1ccc2nc(C(=O)NC3CCN(C)CC3)nc(N3CCOC[C@@H]3c3ccccc3)c2c1
IC50 (MV4-11): 1600 nM
Kd [14]: 210 nM

Compound: Cc1noc(C)c1-c1ccc2nc(-c3cnn(CC(C)(C)O)c3)nc(N3CCOC[C@@H]3C3CCCC3)c2c1
t1/2 [15]: 0.033 h
IC50 (MV4-11): 1540 nM
Kd [14]: 155 nM

Compound: Cc1noc(C)c1-c1ccc2nc(N3CCN(CCN(C)C)CC3)nc(N3CCOC[C@H]3c3ccccc3)c2c1
IC50 (MV4-11): 1280 nM

Compound: Cn1cc(-c2ccc3nc(-c4cnn(CC(C)(C)O)c4)nc(N4CCOC[C@@H]4c4ccc(Cl)cc4)c3c2)ccc1=O
IC50 (MV4-11): 1140 nM
Kd [14]: 119 nM

Compound: Cc1noc(C)c1-c1ccc2nc(-c3cnn(CC(C)(C)O)c3)nc(N3CCOC[C@H]3c3ccccc3)c2c1
IC50 (MV4-11): 1730 nM
Kd [14]: 260 nM

Compound: Cc1noc(C)c1-c1ccc2nc(-c3cnn(CC(C)(C)O)c3)nc(N3CCOC[C@@H]3c3ccc(Cl)cc3)c2c1
half-life [2]: 2.8 h
Cmax ([4]; CD-1, mouse, read-out: Cmax): 1120 ng/mL
Cmax [5]: 1800 ng/mL
half-life [7]: 2.4 h
bioavailability [8]: 44%
AUC(0-inf) [9]: 12600 ng·h/mL
Vd [10]: 1.58 L/kg
clearance [11]: 5.9 mL/min/kg
AUC(0-inf) [12]: 5720 ng·h/mL
IC50 [13]: 155 nM
IC50 (MV4-11): 1600 nM
Kd [14]: 305 nM

Compound: Cc1noc(C)c1-c1ccc2nc(-c3cnn(CCO)c3)nc(N3CCOCC3c3ccccc3)c2c1 (stereo unspecified)
Cmax ([4]; mouse): 934 ng/mL
IC50 [13]: 72 nM

Compound: Cn1cc(-c2ccc3nc(-c4cnn(CC(C)(C)O)c4)nc(N4CCOC[C@@H]4c4cccs4)c3c2)ccc1=O
half-life [2]: 1.6 h
Cmax ([4]; CD-1, mouse, read-out: Cmax): 2090 ng/mL
Cmax [5]: 2040 ng/mL
half-life [7]: 2.3 h
bioavailability [8]: 83%
AUC(0-inf) [9]: 22900 ng·h/mL
Vd [10]: 1.08 L/kg
clearance [11]: 6.4 mL/min/kg
AUC(0-inf) [12]: 5550 ng·h/mL
IC50 [13]: 165 nM
IC50 (MV4-11): 980 nM
Kd [14]: 300 nM

Compound: Cc1noc(C)c1-c1ccc2nc(N3CCN(CCN(C)C)CC3)nc(N3CCOC[C@@H]3c3ccccc3)c2c1
AUC [12]: 585 ng·h/mL
IC50 (MV4-11): 690 nM

Compound: Cc1noc(C)c1-c1ccc2nc(-c3cnn(CC(C)(C)O)c3)nc(N3CCOC[C@@H]3C3CCCCC3)c2c1
t1/2 [15]: 0.067 h
IC50 (MV4-11): 1430 nM
Kd [14]: 123 nM

Compound: Cn1cc(-c2ccc3nc(-c4cnn(CC(C)(C)O)c4)nc(N4CCOC[C@@H]4c4ccc(F)cc4)c3c2)ccc1=O
IC50 (MV4-11): 870 nM
Kd [14]: 160 nM

Compound: Cc1noc(C)c1-c1ccc2nc(-c3cnn(CC(C)(C)O)c3)nc(N3CCNC[C@@H]3c3ccccc3)c2c1
AUC [12]: 123 ng·h/mL
IC50 (MV4-11): 590 nM
Kd [14]: 88 nM

Compound: Cc1noc(C)c1-c1ccc2nc(-c3cnn(CCO)c3)nc(N3CCOC[C@@H]3c3ccccc3)c2c1
Kd [14]: 99 nM

Compound: Cn1cc(-c2ccc3nc(-c4cnn(CC(C)(C)O)c4)nc(N4CCOC[C@@H]4C4CC4)c3c2)ccc1=O
IC50 (MV4-11): 2350 nM
Kd [14]: 2200 nM

Compound: Cc1noc(C)c1-c1ccc2nc(-c3cnn(CC(N)=O)c3)nc(N3CCOC[C@@H]3c3ccccc3)c2c1
IC50 (MV4-11): 2020 nM
Kd [14]: 120 nM

Compound: Cc1noc(C)c1-c1ccc2nc(-c3cnn(CC(C)(C)O)c3)nc(N3CCOC[C@@H]3c3cccs3)c2c1
half-life [2]: 2.4 h
Cmax ([4]; CD-1, mouse, read-out: Cmax): 2220 ng/mL
Cmax [5]: 1580 ng/mL
half-life [7]: 1.4 h
bioavailability [8]: 72%
AUC(0-inf) [9]: 17700 ng·h/mL
Vd [10]: 1.01 L/kg
clearance [11]: 7.3 mL/min/kg
AUC(0-inf) [12]: 4940 ng·h/mL
IC50 [13]: 364 nM
IC50 (MV4-11): 1950 nM
Kd [14]: 220 nM

Compound: Cc1noc(C)c1-c1ccc2nc(-c3cnn(CC(=O)N(C)C)c3)nc(N3CCOC[C@@H]3c3ccccc3)c2c1
IC50 (MV4-11): 1800 nM
Kd [14]: 110 nM

Compound: Cc1noc(C)c1-c1ccc2nc(N3CCC4(CCN(C)C4=O)CC3)nc(N3CCOC[C@@H]3c3ccccc3)c2c1
IC50 (MV4-11): 1360 nM
Kd [14]: 110 nM

Compound: Cc1noc(C)c1-c1ccc2nc(-c3cnn(CC(C)(C)O)c3)nc(N3CCOC[C@@H]3C3CCC3)c2c1
t1/2 [15]: 0.3 h
IC50 (MV4-11): 2200 nM
Kd [14]: 195 nM

The next lines start with results.

half-life [2]: 4.2 h
Cmax ([4]; CD-1, mouse, read-out: Cmax): 3180 ng/mL
Cmax [5]: 2260 ng/mL
half-life [7]: 2.6 h
bioavailability [8]: 123%
AUC(0-inf) [9]: 45700 ng·h/mL
Vd [10]: 1.08 L/kg
clearance [11]: 4.5 mL/min/kg
AUC(0-inf) [12]: 7400 ng·h/mL
IC50 [13]: 6 nM
Kd [14]: 20 nM
Compound: Cc1cc(-c2ccc3nc(-c4cnn(CC(C)(C)O)c4)nc(N4CCOC[C@@H]4c4ccc(F)cc4)c3c2)cn(C)c1=O
inhibition in vivo at 10 mg/kg (Kasumi 1 [1]): 41%
Activity (Kasumi 1 [3]): 977 mm3
Activity (Kasumi 1 [6]): 1.24 g

t1/2 [15]: 0.867 h
half-life [2]: 2.8 h
Cmax ([4]; CD-1, mouse, read-out: Cmax): 2080 ng/mL
Cmax [5]: 1590 ng/mL
half-life [7]: 2.6 h
bioavailability [8]: 90%
AUC(0-inf) [9]: 26100 ng·h/mL
Vd [10]: 1.47 L/kg
clearance [11]: 5.9 mL/min/kg
AUC(0-inf) [12]: 5790 ng·h/mL
IC50 [13]: 13 nM
Kd [14]: 58 nM
Compound: Cc1noc(C)c1-c1ccc2nc(-c3cnn(CC(C)(C)O)c3)nc(N3CCOC[C@@H]3c3ccc(F)cc3)c2c1
IC50 (MV4-11): 1270 nM

Kd [14]: 85 nM
Compound: CNC(=O)Cn1cc(-c2nc(N3CCOC[C@@H]3c3ccccc3)c3cc(-c4c(C)noc4C)ccc3n2)cn1
IC50 (MV4-11): 1010 nM

Kd [14]: 51 nM
Compound: Cc1noc(C)c1-c1ccc2nc(N3CCC4(CCC(=O)N4C)CC3)nc(N3CCOC[C@@H]3c3ccccc3)c2c1
IC50 (MV4-11): 1380 nM

Kd [14]: 87 nM
Compound: Cc1noc(C)c1-c1ccc2nc(-c3cnn(C(C)(C)CO)c3)nc(N3CCOC[C@@H]3c3ccccc3)c2c1
IC50 (MV4-11): 1970 nM

half-life [2]: 1.7 h
Cmax ([4]; CD-1, mouse, read-out: Cmax): 2670 ng/mL
Cmax [5]: 2580 ng/mL
half-life [7]: 1.4 h
bioavailability [8]: 86%
AUC(0-inf) [9]: 21200 ng·h/mL
Vd [10]: 0.82 L/kg
clearance [11]: 6.9 mL/min/kg
AUC(0-inf) [12]: 4950 ng·h/mL
IC50 [13]: 90 nM
Kd [14]: 68 nM
Compound: Cc1noc(C)c1-c1ccc2nc(-c3cnn(CC(C)(C)O)c3)nc(N3CCN(S(C)(=O)=O)C[C@@H]3c3ccccc3)c2c1
IC50 (MV4-11): 1130 nM

Kd [14]: 25 nM
Compound: Cn1cc(-c2ccc3nc(-c4cnn(CC(C)(C)O)c4)nc(N4CCOC[C@@H]4C4CCCCC4)c3c2)ccc1=O
IC50 (MV4-11): 530 nM

Kd [14]: 42 nM
Compound: CC(=O)N1CCN(c2nc(N3CCOC[C@@H]3c3ccccc3)c3cc(-c4c(C)noc4C)ccc3n2)CC1
IC50 (MV4-11): 1430 nM

Kd [14]: 70 nM
Compound: Cc1cc(-c2ccc3nc(-c4cnn(CC(C)(C)O)c4)nc(N4CCOC[C@@H]4C4CC4)c3c2)cn(C)c1=O

half-life [2]: 1.7 h
Cmax ([4]; CD-1, mouse, read-out: Cmax): 3450 ng/mL
Cmax [5]: 2450 ng/mL
half-life [7]: 1.5 h
bioavailability [8]: 95%
AUC(0-inf) [9]: 21900 ng·h/mL
Vd [10]: 0.72 L/kg
clearance [11]: 7.3 mL/min/kg
AUC(0-inf) [12]: 4640 ng·h/mL
IC50 [13]: 140 nM
Kd [14]: 81 nM
Compound: CC(=O)N1CCN(c2nc(-c3cnn(CC(C)(C)O)c3)nc3ccc(-c4c(C)noc4C)cc23)[C@@H](c2ccccc2)C1
IC50 (MV4-11): 850 nM

half-life [2]: 1.5 h
Cmax ([4]; CD-1, mouse, read-out: Cmax): 1980 ng/mL
Cmax [5]: 1860 ng/mL
half-life [7]: 2.2 h
bioavailability [8]: 118%
AUC(0-inf) [9]: 16100 ng·h/mL
Vd [10]: 1.89 L/kg
clearance [11]: 12.3 mL/min/kg
AUC(0-inf) [12]: 2730 ng·h/mL
IC50 [13]: 57 nM
Kd [14]: 69 nM
Compound: Cn1cc(-c2ccc3nc(-c4cnn(CC(C)(C)O)c4)nc(N4CCOC[C@@H]4c4ccccc4)c3c2)ccc1=O
IC50 (MV4-11): 740 nM

half-life [2]: 2.7 h
Cmax ([4]; CD-1, mouse, read-out: Cmax): 2870 ng/mL
Cmax [5]: 2450 ng/mL
half-life [7]: 2.1 h
bioavailability [8]: 85%
AUC(0-inf) [9]: 39800 ng·h/mL
Vd [10]: 0.89 L/kg
clearance [11]: 3.8 mL/min/kg
AUC(0-inf) [12]: 9330 ng·h/mL
IC50 [13]: 11 nM
Kd [14]: 23 nM
Compound: Cc1cc(-c2ccc3nc(-c4cnn(CC(C)(C)O)c4)nc(N4CCOC[C@@H]4c4ccccc4)c3c2)cn(C)c1=O
inhibition in vivo at 10 mg/kg (Kasumi 1 [1]): 65.1%
Activity (Kasumi 1 [3]): 588 mm3
Activity (Kasumi 1 [6]): 0.73 g
IC50 (MV4-11): 240 nM

Kd [14]: 73 nM
Compound: CNC(=O)C1CCN(c2nc(N3CCOC[C@@H]3c3ccccc3)c3cc(-c4c(C)noc4C)ccc3n2)CC1
IC50 (MV4-11): 970 nM
